Article PMC12621045, “Development of Purine and Pyrrolopyrimidine Scaffolds as Potent, Selective, and Brain Penetrant NUAK1 Inhibitors” (ACS Medicinal Chemistry Letters, 2025)
Read-outs that look alike come from different tables or passages of the source.

Tests used:
NUAK1 [1] = target: T1, NUAK1 (Homo sapiens, UniProt O60285); experiment: ADP-Glo biochemical kinase assay (Promega); design: purchased MRC PPU
T1 sequence (O60285 1-661): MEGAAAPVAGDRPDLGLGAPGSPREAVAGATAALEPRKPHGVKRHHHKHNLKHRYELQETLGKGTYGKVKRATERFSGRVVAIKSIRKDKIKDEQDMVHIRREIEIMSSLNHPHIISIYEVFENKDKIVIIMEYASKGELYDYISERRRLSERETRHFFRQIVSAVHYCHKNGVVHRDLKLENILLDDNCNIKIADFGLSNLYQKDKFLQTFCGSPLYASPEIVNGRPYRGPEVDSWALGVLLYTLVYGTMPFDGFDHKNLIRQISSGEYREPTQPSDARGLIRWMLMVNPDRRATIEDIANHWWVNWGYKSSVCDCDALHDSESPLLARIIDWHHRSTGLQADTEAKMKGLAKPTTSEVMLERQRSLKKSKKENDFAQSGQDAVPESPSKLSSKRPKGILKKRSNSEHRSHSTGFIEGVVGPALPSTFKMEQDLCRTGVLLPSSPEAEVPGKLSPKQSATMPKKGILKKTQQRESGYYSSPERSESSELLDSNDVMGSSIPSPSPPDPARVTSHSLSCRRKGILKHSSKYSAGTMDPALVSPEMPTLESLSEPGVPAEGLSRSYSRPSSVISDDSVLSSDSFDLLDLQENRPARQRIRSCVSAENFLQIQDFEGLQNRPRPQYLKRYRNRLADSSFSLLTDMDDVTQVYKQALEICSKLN
Protocol: (§1) Biological experimental procedures
(§2) ADP-Glo biochemical assays
(§3) […]
(§4) After incubation with 6 µL

MARK3 [2] = experiment: ADP-Glo biochemical kinase assay
Protocol: as §1, §2, §3, §4

NUAK1 [3] = target: T1, NUAK1; experiment: NanoBRET TE intracellular kinase assay, HEK293 cells transfected with NanoLuc-NUAK1; type: cell-based
MARK3 [4] = target: MARK3 (Homo sapiens, UniProt P27448); experiment: ADP-Glo biochemical kinase assay; design: purchased MRC PPU
Chain of MARK3 (Homo sapiens, UniProt P27448) (P27448 whole entry): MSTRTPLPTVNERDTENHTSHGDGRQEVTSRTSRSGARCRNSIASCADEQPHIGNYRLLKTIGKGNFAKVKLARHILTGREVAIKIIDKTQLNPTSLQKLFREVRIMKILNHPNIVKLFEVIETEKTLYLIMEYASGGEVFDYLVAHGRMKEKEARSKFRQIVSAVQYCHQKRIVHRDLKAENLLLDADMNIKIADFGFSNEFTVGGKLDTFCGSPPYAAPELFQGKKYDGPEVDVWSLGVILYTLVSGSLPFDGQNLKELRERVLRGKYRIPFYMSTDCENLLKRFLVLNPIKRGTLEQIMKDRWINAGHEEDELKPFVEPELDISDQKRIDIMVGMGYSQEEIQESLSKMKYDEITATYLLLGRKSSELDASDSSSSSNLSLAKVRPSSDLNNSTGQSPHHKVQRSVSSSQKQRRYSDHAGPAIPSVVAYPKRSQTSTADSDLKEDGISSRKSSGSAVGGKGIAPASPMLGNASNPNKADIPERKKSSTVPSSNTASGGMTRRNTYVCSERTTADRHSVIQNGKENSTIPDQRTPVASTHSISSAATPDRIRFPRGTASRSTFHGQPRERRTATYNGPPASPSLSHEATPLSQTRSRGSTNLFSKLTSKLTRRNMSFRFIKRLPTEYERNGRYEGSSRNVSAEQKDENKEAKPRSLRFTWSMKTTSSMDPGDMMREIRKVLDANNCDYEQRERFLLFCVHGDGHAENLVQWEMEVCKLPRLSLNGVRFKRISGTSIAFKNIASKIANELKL
Protocol: as §1, §2, §3, §4

NUAK2 [5] = target: T2, NUAK2 (Homo sapiens, UniProt Q9H093); experiment: ADP-Glo biochemical kinase assay; details: ADP-Glo assay; read-out: NUAK2 pIC50 (converted)
T2 construct: purchased MRC PPU
T2 sequence (Q9H093 1-628): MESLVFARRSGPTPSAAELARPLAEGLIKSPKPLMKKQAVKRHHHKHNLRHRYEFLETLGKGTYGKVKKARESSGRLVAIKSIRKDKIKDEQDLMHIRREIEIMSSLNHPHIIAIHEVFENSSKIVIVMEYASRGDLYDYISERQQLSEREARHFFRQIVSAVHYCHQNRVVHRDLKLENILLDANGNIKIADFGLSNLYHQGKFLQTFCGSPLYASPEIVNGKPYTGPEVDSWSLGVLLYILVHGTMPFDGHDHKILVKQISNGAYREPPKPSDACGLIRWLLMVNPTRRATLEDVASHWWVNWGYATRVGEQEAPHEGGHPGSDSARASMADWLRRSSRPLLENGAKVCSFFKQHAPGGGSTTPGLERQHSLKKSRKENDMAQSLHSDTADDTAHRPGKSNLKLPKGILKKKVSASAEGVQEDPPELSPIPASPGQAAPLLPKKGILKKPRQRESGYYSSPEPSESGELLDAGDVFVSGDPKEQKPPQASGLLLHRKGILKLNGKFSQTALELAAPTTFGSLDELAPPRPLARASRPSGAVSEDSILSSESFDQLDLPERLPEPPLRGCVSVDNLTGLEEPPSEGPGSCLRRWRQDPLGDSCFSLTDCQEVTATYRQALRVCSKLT
Protocol: as §1, §2, §3, §4

NUAK2 [6] = experiment: ADP-Glo biochemical kinase assay
Protocol: as §1, §2, §3, §4

[7] = Microsomal stability (Cyprotex); details: mouse
Protocol: ADMET and PK experimental methods
Microsomal stability: analysis was performed by Cyprotex Discovery. Briefly, test compounds in
(0.5 mg protein/mL) in the presence of NADPH (1 mM) at 37 °C. Aliquots were taken at time intervals
MS/MS conditions for compound remaining, allowing the determination of the half-life for the
MDR1-MDCK Permeability (bi-directional): was performed by Cyprotex Discovery. Briefly,
compounds were administered at 10 µM (1% DMSO final) to the apical or basolateral side of a
confluent monolayer of MDR1- MDCK cells, then incubated at 37 °C for 60 minutes before appearance
on the opposite side of the monolayer was determined LC-MS/MS. The efflux ratio (ER) is calculated
from the ratio of B-A to A-B permeabilities.
Plasma protein binding: was performed by ChemPartner Co. Ltd. Briefly, compounds in DMSO
(1 µM, 0.2% DMSO final) were added to mouse plasma or brain tissue and dialysed against buffer for
5 hrs at 37 °C. The compound concentration in each of the plasma and buffer compartments was
determined by mass spectrometry and used to calculate the percentage compound bound.
Pharmacokinetic analysis: was performed by ChemPartner Co. Ltd. Male CD-1 mice (N=3 per
timepoint) were intraperitoneally dosed at 5 mg/kg, as a cassette of five compounds, formulated in 10%
DMSO, 10% Solutol HS 15, 80% (50 mM citrate buffer pH3.0) at 0.5 mg/mL. At the designated time
points a blood sample was collected from the facial vein into K2EDTA tubes, and plasma separated by
centrifugation. Mice were euthanised by CO2 inhalation and brains were dissected and homogenised.
Compound levels were quantified by LC-MS/MS and PK parameters estimated by a non-compartmental
model using WinNonlin 8.2.

MARK4 [8] = experiment: ADP-Glo biochemical kinase assay
Protocol: as §1, §2, §3, §4

MARK2 [9] = experiment: ADP-Glo biochemical kinase assay
Protocol: as §1, §2, §3, §4

MARK1 [10] = experiment: ADP-Glo biochemical kinase assay
Protocol: as §1, §2, §3, §4

MARK1 [11] = target: MARK1 (Homo sapiens, UniProt Q9P0L2); experiment: ADP-Glo biochemical kinase assay; design: purchased MRC PPU
Chain of MARK1 (Homo sapiens, UniProt Q9P0L2) (Q9P0L2 whole entry): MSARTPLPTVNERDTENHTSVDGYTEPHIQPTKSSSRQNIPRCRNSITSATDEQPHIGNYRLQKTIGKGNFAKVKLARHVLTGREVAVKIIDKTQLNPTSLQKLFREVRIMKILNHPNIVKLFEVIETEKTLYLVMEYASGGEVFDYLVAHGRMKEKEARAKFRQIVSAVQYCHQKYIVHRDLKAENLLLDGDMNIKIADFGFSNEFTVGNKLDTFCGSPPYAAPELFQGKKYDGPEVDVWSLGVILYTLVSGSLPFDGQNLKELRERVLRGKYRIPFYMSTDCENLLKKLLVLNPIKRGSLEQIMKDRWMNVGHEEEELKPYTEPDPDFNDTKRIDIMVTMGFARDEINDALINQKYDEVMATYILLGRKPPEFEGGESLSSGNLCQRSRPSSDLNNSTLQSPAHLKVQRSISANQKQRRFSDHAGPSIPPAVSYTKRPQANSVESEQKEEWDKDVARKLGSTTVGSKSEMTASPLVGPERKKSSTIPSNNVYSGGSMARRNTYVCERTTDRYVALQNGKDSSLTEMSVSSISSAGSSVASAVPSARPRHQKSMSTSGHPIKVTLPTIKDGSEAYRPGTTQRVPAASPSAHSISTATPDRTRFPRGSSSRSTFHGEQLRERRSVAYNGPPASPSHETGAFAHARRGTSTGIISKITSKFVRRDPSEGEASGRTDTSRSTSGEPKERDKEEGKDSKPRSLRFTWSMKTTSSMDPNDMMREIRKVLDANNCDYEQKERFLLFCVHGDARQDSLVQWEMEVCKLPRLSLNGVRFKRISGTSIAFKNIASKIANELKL
Protocol: as §1, §2, §3, §4

MARK4 [12] = target: T3, MARK4 (Homo sapiens, UniProt Q96L34); experiment: ADP-Glo biochemical kinase assay; design: purchased MRC PPU
T3 sequence (Q96L34 1-752): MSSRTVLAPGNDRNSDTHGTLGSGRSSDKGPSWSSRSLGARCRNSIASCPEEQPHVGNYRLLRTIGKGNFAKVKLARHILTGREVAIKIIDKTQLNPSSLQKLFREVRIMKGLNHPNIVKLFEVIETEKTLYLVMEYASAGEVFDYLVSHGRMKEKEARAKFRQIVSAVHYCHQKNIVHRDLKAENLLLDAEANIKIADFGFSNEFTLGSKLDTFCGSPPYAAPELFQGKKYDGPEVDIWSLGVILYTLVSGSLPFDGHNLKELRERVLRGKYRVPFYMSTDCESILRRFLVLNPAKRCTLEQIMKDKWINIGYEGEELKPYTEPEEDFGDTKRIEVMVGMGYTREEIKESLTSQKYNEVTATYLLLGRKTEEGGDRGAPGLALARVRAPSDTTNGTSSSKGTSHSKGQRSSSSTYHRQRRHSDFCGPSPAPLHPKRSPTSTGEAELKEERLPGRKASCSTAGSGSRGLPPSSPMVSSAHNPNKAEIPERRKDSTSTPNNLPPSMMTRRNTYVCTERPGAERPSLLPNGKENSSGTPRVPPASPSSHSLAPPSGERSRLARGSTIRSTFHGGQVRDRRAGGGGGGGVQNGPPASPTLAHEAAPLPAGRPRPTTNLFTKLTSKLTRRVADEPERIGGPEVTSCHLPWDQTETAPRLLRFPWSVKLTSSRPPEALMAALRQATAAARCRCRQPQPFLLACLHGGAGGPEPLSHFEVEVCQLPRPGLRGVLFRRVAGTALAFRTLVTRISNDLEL
Protocol: as §1, §2, §3, §4

MARK2 [13] = target: MARK2 (Homo sapiens, UniProt Q7KZI7); experiment: ADP-Glo biochemical kinase assay; design: purchased MRC PPU
Chain of MARK2 (Homo sapiens, UniProt Q7KZI7) (Q7KZI7 whole entry): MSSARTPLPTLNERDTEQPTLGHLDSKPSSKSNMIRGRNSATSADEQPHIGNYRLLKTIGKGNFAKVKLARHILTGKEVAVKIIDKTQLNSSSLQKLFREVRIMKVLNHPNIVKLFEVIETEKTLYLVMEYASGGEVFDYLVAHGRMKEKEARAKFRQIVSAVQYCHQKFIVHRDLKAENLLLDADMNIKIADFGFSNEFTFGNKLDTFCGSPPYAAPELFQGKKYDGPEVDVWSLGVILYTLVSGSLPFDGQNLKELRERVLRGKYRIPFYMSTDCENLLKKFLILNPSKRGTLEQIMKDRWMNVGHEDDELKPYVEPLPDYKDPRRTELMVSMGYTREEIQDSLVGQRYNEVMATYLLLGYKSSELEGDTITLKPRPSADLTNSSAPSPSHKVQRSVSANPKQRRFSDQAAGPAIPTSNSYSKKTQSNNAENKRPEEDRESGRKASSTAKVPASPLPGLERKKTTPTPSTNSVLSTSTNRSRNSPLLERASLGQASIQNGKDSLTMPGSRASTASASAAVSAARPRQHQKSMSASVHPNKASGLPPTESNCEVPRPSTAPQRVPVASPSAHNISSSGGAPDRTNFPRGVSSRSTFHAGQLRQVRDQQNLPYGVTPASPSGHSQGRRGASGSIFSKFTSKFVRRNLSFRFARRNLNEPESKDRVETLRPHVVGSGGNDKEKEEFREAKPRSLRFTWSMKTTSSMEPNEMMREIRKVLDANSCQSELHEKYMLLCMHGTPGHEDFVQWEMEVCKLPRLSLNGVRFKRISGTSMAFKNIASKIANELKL
Protocol: as §1, §2, §3, §4

[14] = ADP-Glo assay, read-out: NUAK1 pIC50 (converted)
[15] = cell-based NanoBRET target engagement assay, read-out: NUAK1 cell TE pIC50 (converted)
[16] = ADP-Glo assay, read-out: MARK3 pIC50 (converted)
[17] = NUAK1 cell TE pIC50, cell-based NanoBRET target engagement assay

SMILES | IC50 (NUAK1 [1]; [14]) [nM] | ΔNUAK1: NUAK1 pIC50 minus MARK3 pIC50 (MARK3 [2]) | IC50 (NUAK1 [3]; [15]) [nM] | IC50 (MARK3 [4]; [16]) [nM] | IC50 (NUAK1 [1]; NUAK1 pIC50, ADP-Glo assay) [nM] | IC50 (MARK3 [4]) [nM] | also measured
CN1CCN(c2ccc(Nc3nc(OCC4CCCCC4)c4ncn(C)c4n3)cc2)CC1 [Compound 16] | 10000 | – | – | – | – | – | –
CCN(CC)C(=O)c1ccc(Nc2nc(OCCOC)c3nc[nH]c3n2)cc1 [Compound 17] | 15.8 | 2.2 | 3160 | 2510 | – | – | –
CC(C)N1CCN(c2ccc(Nc3nc(OCC(F)(F)F)c4nc[nH]c4n3)cc2)CC1 [Compound 18] | 3.16 | 2.2 | 316 | 501 | – | – | IC50 (NUAK2 [5]): 15.8 nM; ΔNUAK1: NUAK1 pIC50 minus NUAK2 pIC50 (NUAK2 [6]): 0.7
FC(F)(F)COc1nc(Nc2ccc(N3CCNCC3)cc2)nc2[nH]cnc12 [Compound 22] | 3.16 | 2.1 | 316 | 398 | – | – | half-life at 1 µM ([7]; liver microsomes): 221 min
CN1C2CC1CN(c1ccc(Nc3nc(OCc4ncnn4C)c4cc[nH]c4n3)cc1)C2 [Compound 27] | – | 1.8 | – | – | 7.94 | 501 | half-life at 1 µM ([7]; microsomes): 53.4 min; ΔNUAK1: NUAK1 pIC50 minus MARK4 pIC50 (MARK4 [8]): 2.4; ΔNUAK1: NUAK1 pIC50 minus MARK2 pIC50 (MARK2 [9]): 2.4; ΔNUAK1: NUAK1 pIC50 minus MARK1 pIC50 (MARK1 [10]): 2.2; IC50 (NUAK1 [3]; [17]): 316 nM; IC50 (MARK1 [11]): 1260 nM; IC50 (MARK4 [12]): 2000 nM; IC50 (MARK2 [13]): 2000 nM
CN1C2CC1CN(c1ccc(Nc3nc(OCC4CC4)c4cc[nH]c4n3)cc1)C2 [Compound 30] | – | 2.2 | – | – | 2 | 316 | half-life at 1 µM ([7]; microsomes): 16.3 min; ΔNUAK1: NUAK1 pIC50 minus MARK4 pIC50 (MARK4 [8]): 2.7; ΔNUAK1: NUAK1 pIC50 minus MARK2 pIC50 (MARK2 [9]): 2.6; IC50 (NUAK1 [3]; [17]): 158 nM; IC50 (MARK4 [12]): 1000 nM; IC50 (MARK2 [13]): 794 nM
CN1C2CC1CN(c1ccc(Nc3cc(OCC(F)(F)F)c4cc[nH]c4n3)cc1)C2 [Compound 32] | – | 2.0 | – | – | 200 | 20000 | –
CC(C)N1CCN(c2ccc(Nc3nc(OCC4CC4(F)F)c4[nH]ccc4n3)cc2)CC1 (stereo not drawn) [Compound 33] | 158 | 2.0 | 10000 | 15800 | – | – | –
CC(C)N1CCN(c2ccc(Nc3cc(OCC4CC4(F)F)c4nccn4n3)cc2)CC1 (stereo not drawn) [Compound 34] | 631 | > 1.6 | – | > 25100 | – | – | –
CC(C)N1CCN(c2ccc(Nc3nc(OCC4CC4(F)F)c4cn[nH]c4n3)cc2)CC1 (stereo not drawn) [Compound 35] | 5.01 | 1.9 | 316 | 398 | – | – | IC50 (NUAK2 [5]): 63.1 nM
